This note sets out measurements from patent US11938122B2, “5-[[4-[2-[5-(1-hydroxyethyl)pyridin-2-yl]ethoxy]phenyl]methyl]-1,3- thiazolidine-2,4-dione for treating nonalcoholic fatty liver disease” (Minoryx Therapeutics S.L., priority 2016, dated 2024).

The term AUC(0-inf) denotes total exposure, with the tail of the curve extrapolated.

In one series the test system is CYP3A4. Kind of series: CYP induction in cryopreserved human hepatocytes. Type of series: in vitro ADME. The following applies: 50 μM, hepatocytes from 3 human donors.
Series [1] deals with MCD diet NASH mouse model. Kind of series: Methionine Choline Deficient (MCD) diet NASH mouse model. Type of series: in vivo. The conditions noted are these: 62.5 mg/kg BID oral, 7 weeks. From the text: According to one NASH model in mice (See Verdelho Machado et al., PlosOne May 27:10(5):e0127991 (2015)), male C57BL/6 inbred mice, aged 8 weeks, were obtained from Charles River, France. During the acclimation phase, standard (control chow) diet (RM1 (E) 801492, SDS) and tap water was provided ad libitum. Mice were then fed a Methionine Choline Deficient (MCD) diet (ref #A02082002B from Research Diets, USA) supplemented without or with the test item, provided ad libitum. All procedures were performed in accordance with the Guide for the Care and Use of Laboratory Animals (revised 1996 and 2011, 2010/63/EU) and French laws. 20 animals were housed in ventilated and enriched housing cages (310×125×127 mm^3) throughout the experimental phase. Animals' cages litters were changed at least once a week. They were housed in groups of 10 animals during the whole study, on a normal 12 hours light cycle (at 08:00 pm lights off), 22±2° C. and 50±10% relative humidity.
After the acclimation period, mice (n=20) were weighed and randomized into 2 homogenous treatment groups based on body weight (n=10/group), put on a MCD diet, and treated BID orally with vehicle or MIN-102 for 7 weeks. Body weight was measured 3 times/week until the end of the experimental phase. At 7 weeks of diet/treatment, mice were weighed and treated at ˜08:00 am in the morning, then bled (maximal volume/EDTA) at ˜1:00 pm. Plasma was then immediately isolated and stored at […] prior to assay plasma ALT and AST. The plasma volume left over was stored at […] for eventual additional analysis.
After blood collection, mice were sacrificed by cervical dislocation under isoflurane anesthesia and exsanguinated with sterile saline. Liver was collected and weighted. A ˜20 mg liver sample (weight recorded) was dissected for hepatic total cholesterol and triglycerides levels. A 0.5 cm^3 liver sample was frozen in isopentane for oil red O staining. […]
A NAFLD scoring system (NAS) adapted from Kleiner et al. (Hepatology. 41(6):1313-1321 (2005)) was used. An individual mouse NAS total score was calculated for each animal by summing up the score for (1) hepatocellular steatosis, (2) liver inflammation, (3) lobular fibrosis, and (4) hepatocyte ballooning. […]
Data are expressed as mean±SEM. […]
The preventive effects of MIN-102 was evaluated in a 7-week Methionine Choline Deficient (MCD) diet NASH mouse model (Verdelho Machado et al.). […]
After the acclimation period, C57BL6/J male mice (n=20) were weighed and randomized into 2 homogenous treatment groups based on body weight (n=10/group), put on a MCD diet, and treated BID orally with a vehicle or MIN-102 (125 mg/Kg/day) for 7 weeks. Body weight was measured 3 times/week until the end of the experimental phase. […]

The nature of series [2]: MIN-102 single oral dose (SAD) pharmacokinetics in healthy subjects. The conditions noted are these: human, in vivo, some doses.
A further series relates to EAE mouse model. Put plainly: Experimental autoimmune encephalitis (EAE) mouse model. Type of series: in vivo. The conditions noted are these: EAE mice, highest dose (125 mg/Kg/day oral, bid). An excerpt:
The anti-inflammatory potential of MIN-102 was studied using an EAE mouse model, e.g., as described in Linker and Lee, Experimental & Translational Stroke Medicine 1:5 (2009). This model for neuroinflammation is a highly reproducible and long established model of multiple sclerosis. The model is based on the induction of an autoimmune reaction upon the exposure of the animals to myelin antigens. Several days after inoculation, e.g., 9-12 days, the mouse develops a relapsing-remitting or chronic disease course.
In the study, female C57Bl/6 mice were sensitized by a subcutaneous injection of myelin oligodendrocyte glycoprotein peptide fragment 35-55 (MOG35-55) in Freund's Complete Adjuvant (CFA) at the tail base. Starting at five days after disease induction, the animals were treated at three different oral doses of MIN-102, 17, 50, and 125 mg/Kg/day, using bid administration. From day five, the animals were weighed and scored for the appearance of disease symptoms. The levels of neutrophils were measured in mice from the naïve, vehicle, and the highest MIN-102 dose. Data were analyzed by one-way ANOVA followed by the Dunnett's post-hoc test versus the vehicle group (*, p <0.05). Results are presented as mean+standard error of the mean of n=10, except n=9 for the highest dose of MIN-102, and n=4 for the naïve group.

In a further series the test system is CYP1A2. Put plainly: CYP induction in cryopreserved human hepatocytes. The conditions noted are these: 50 μM, hepatocytes from 3 human donors. The series is classed as in vitro ADME.
The nature of series [3]: Stability in the hepatocyte incubation medium. Type of series: in vitro ADME. The following applies: 50 μM, 24-hour incubation. On the procedure: The stability of MIN-102 in the incubation medium was assayed in parallel at the highest test concentration (50 μM) and quantified in incubation medium.

Turning to `CC(O)c1ccc(CCOc2ccc(CC3SC(=O)NC3=O)cc2)nc1` (racemic) [MIN-102, 5-[[4-[2-[5-(1-hydroxyethyl)pyridin-2-yl]ethoxy]phenyl]methyl]-1,3-thiazolidine-2,4-dione], in the series on CYP3A4, the “increase in CYP3A4 mRNA” value is “less than 20 % of the respective positive control induction” and the “increase in activity of CYP3A4 probe reaction” value is “less than 20 % of the respective positive control induction”. Further, in series [1] (mean±SEM), the “Mean NAS group score” value amounted to 0.44±01. Also, in series [1] (vs vehicle), the “reduction in hepatic triglycerides levels” value was found to be 92%, the “reduction of plasma ALT level” value is on record as 78% and the “reduction of plasma AST level” value is given as 55%. This molecule gave a total exposure AUC(0-inf) in series [2] of 20 to 400 µg·h/mL. Also, in the series on EAE mouse model, the Lymphocyte number was 3.6 ± 2.3 ×10^3 cells/μl, the N/L ratio is given as 0.52 and the Neutrophil number was 1.9 ± 0.6 ×10^3 cells/μl. Moreover, the “increase in activity of CYP1A2 probe reaction” value in the series on CYP1A2 is on record as “less than 20 % of the respective positive control induction”. Besides, the “stability in incubation medium” value in series [3] is given as “remained stable”.
